Laboratory results published in patent US11795165B2, “Tetrahydro-benzoazepine glycosidase inhibitors” (Asceneuron SA, priority 2018, dated 2023).

molecular target: His-Tagged hOGA (human O-GlcNAcase) (Homo sapiens (Human), UniProt O60502); assay: Human O-GlcNAcase enzyme inhibition assay (OGA enzyme inhibition assay); format: biochemical; settings: His-Tagged hOGA 20 nM, FL-GlcNAc 10 μM, 60 min at room temperature, pH 6.5; activity classes
Method: Example B01: Human O-GlcNAcase Enzyme Inhibition Assay
5 μl of the appropriate concentration of a solution of inhibitor in McIlvaine's Buffer (pH 6.5) in 2% DMSO (for a dose response curve calculation) is added into each well of a 384-well plate (Greiner, 781900). Then, 20 nM of His-Tagged hOGA and 10 μM of FL-GlcNAc (Fluorescein mono-beta-D-(2-deoxy-2-N-acetyl) glucopyranoside; Marker Gene Technologies Inc, M1485) were added to the 384-well plate for a final volume of 20 μl. After incubation for 60 min at room temperature, the reaction was terminated by the addition of 10 μL of stop buffer (200 mM glycine, pH 10.75). The level of fluorescence (Δexc 485 nm; (Δemm 520 nm) was read on a PHERAstar machine. The amount of fluorescence measured was plotted against the concentration of inhibitor to produce a sigmoidal dose response curve to calculate an IC50. All individual data was corrected by subtraction of the background (Thiamet 3 uM=100% inhibition) whilst 0.5% DMSO was considered as the control value (no inhibition).

His-Tagged hOGA (human O-GlcNAcase), sequence (O60502 whole entry): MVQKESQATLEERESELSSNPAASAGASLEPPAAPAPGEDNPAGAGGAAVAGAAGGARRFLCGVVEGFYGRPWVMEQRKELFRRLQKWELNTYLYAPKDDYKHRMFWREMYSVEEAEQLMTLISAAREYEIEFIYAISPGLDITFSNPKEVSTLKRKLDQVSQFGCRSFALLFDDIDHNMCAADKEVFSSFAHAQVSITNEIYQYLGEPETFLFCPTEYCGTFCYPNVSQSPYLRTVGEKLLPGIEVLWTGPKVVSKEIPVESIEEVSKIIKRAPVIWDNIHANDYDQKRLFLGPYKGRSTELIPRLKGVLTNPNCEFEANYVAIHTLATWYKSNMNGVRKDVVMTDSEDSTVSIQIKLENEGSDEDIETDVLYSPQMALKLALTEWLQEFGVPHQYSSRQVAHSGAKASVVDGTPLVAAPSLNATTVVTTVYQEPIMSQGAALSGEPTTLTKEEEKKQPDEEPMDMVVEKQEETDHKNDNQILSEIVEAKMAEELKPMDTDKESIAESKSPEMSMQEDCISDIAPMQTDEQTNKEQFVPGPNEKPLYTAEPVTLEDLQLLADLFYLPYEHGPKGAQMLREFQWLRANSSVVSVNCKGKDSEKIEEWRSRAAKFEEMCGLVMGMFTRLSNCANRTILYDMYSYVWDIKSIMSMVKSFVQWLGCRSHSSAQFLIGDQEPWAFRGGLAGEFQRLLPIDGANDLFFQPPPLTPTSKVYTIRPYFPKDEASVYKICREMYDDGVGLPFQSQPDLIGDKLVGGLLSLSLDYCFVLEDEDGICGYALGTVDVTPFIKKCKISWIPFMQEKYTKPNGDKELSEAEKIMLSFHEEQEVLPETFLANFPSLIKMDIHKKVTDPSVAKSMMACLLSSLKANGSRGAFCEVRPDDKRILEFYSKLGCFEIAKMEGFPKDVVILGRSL

| IC50 | SMILES |
| --- | --- |
| 1000 to 10000 nM | COc1ccc2c(c1)CCN(Cc1ccc3scnc3c1)C(C)C2 (racemic) [Example 29, 5-((7-methoxy-2-methyl-1,2,4,5-tetrahydro-3H-benzo[d]azepin-3-yl)methyl)benzo[d]thiazole] |
| 1000 to 10000 nM | COc1ccc2c(c1)CCN(Cc1ccc3c(c1)OCCO3)C(C)C2 (racemic) [Example 30, 3-((2,3-dihydrobenzo[b][1,4]dioxin-6-yl)methyl)-7-methoxy-2-methyl-2,3,4,5-tetrahydro-1H-benzo[d]azepine] |
| < 50 nM | COc1ccc2c(n1)CCN(C(C)c1ccc3scnc3c1)CC2 (racemic) [Example 31, 5-(1-(2-methoxy-5,6,8,9-tetrahydro-7H-pyrido[2,3-d]azepin-7-yl)ethyl)benzo[d]thiazole] |
| 1000 to 10000 nM | CC(c1ccc2scnc2c1)N1CCc2ccc(-c3ccccn3)cc2CC1 (racemic) [Example 32, 5-(1-(7-(pyridin-2-yl)-1,2,4,5-tetrahydro-3H-benzo[d]azepin-3-yl)ethyl)benzo[d]thiazole] |
| < 50 nM | CC(c1ccc2scnc2c1)N1CCc2ccc(O)cc2CC1 (racemic) [Example 33, 3-(1-(benzo[d]thiazol-5-yl)ethyl)-2,3,4,5-tetrahydro-1H-benzo[d]azepin-7-ol] |
| < 50 nM | COc1ccc2c(c1)CCN(C(C)c1cnc3c(c1)OCC3)CC2 (racemic) [Example 34, 6-(1-(7-methoxy-1,2,4,5-tetrahydro-3H-benzo[d]azepin-3-yl)ethyl)-2,3-dihydrofuro[3,2-b]pyridine] |
| < 50 nM | CC(c1ccc2scnc2c1)N1CCc2ccc(S(C)(=N)=O)cc2CC1 (racemic) [Example 37] |
| < 50 nM | CC(=O)Nc1ccc2c(c1)CCN(C(C)c1ccc3scnc3c1)CC2 (racemic) [Example 43] |
| < 50 nM | CC(c1ccc2scnc2c1)N1CCc2cc(S(C)(=O)=O)cnc2CC1 (racemic) [Example 51] |
| < 50 nM | CC(c1ccc2scnc2c1)N1CCc2cc(S(C)(=N)=O)cnc2CC1 (racemic) [Example 52] |
| < 50 nM | Cc1cc(Oc2ccc3c(c2)CCN(C(C)c2ccc4scnc4c2)CC3)ccn1 (racemic) [Example 60] |
| < 50 nM | Cc1cc(Oc2ccc3c(c2)CCN(C(C)c2ccc4scnc4c2)CC3)nc(C)n1 (racemic) [Example 62] |
| < 50 nM | CC(=O)Nc1cnc2c(c1)CCN(C(C)c1ccc3scnc3c1)CC2 (racemic) [Example 92] |
| 200 to 1000 nM | CC(c1ccc2scnc2c1)N1CCCc2ncc([N+](=O)[O-])cc2C1 (racemic) [Example 106] |
| 200 to 1000 nM | CC(=O)Nc1ccc2c(c1)CCCN(C(C)c1ccc3scnc3c1)C2 (racemic) [Example 107] |
| < 50 nM | CC(c1ccc2scnc2c1)N1CCc2cnc(N)nc2CC1 (racemic) [Example 108] |
| < 50 nM | CC(c1ccc2scnc2c1)N1CCc2ccc(-c3cnn(C)c3)cc2CC1 (racemic) [Example 109] |
| 200 to 1000 nM | CC(c1ccc2scnc2c1)N1CCCc2cc(-c3cnn(C)c3)ccc2C1 (racemic) [Example 110] |
| < 50 nM | CSc1ccc2c(c1)CCN(C(C)c1ccc3scnc3c1)CC2 (racemic) [Example 111] |

| IC50 | SMILES |
| --- | --- |
| 200 to 1000 nM | CSc1ccc2c(c1)CCCN(C(C)c1ccc3scnc3c1)C2 (racemic) [Example 112] |
| 50 to 200 nM | COc1ccc2c(c1)CCN(C(C)c1ccc3scnc3c1)CC2O (racemic) [Example 116] |
| < 50 nM | CC(c1ccc2scnc2c1)N1CCc2cc(N)cnc2CC1 (racemic) [Example 117] |
| < 50 nM | CC(c1ccc2scnc2c1)N1CCc2cc(NS(=O)(=O)C3CC3)cnc2CC1 (racemic) [Example 120] |
| 200 to 1000 nM | CC(c1ccc2scnc2c1)N1CCCc2ncc(NS(=O)(=O)C3CC3)cc2C1 (racemic) [Example 121] |
| 1000 to 10000 nM | CC(=O)Nc1ncc(CN2CCCc3ccccc3C2C)s1 (racemic) [Example 122] |
| 1000 to 10000 nM | COc1ccc2c(c1)CCN(C(C)c1ccc3nsnc3c1)CC2 (single isomer, unassigned) [Example 3] |
| 200 to 1000 nM | COc1ccc2c(c1)CCN(C(C)c1ccc3scnc3c1)CC2 (single isomer, unassigned) [Example 6] |
| 50 to 200 nM | COc1ccc2c(c1)CCN(C(C)c1ccc3c(c1)OCC3)CC2 (single isomer, unassigned) [Example 9] |
| < 50 nM | CC(c1ccc2scnc2c1)N1CCc2ccccc2CC1 (single isomer, unassigned) [Example 21] |
| 200 to 1000 nM | CC(c1ccc2scnc2c1)N1CCc2ccccc2CC1 (single isomer, unassigned) [Example 22] |
| 1000 to 10000 nM | CC(c1ccc2scnc2c1)N1CCc2ccc(S(C)(=N)=O)cc2CC1 (single isomer, unassigned) [Example 115] |
| 1000 to 10000 nM | CSc1ccc2c(c1)CCN(C(C)c1ccc3scnc3c1)CC2 (single isomer, unassigned) [Example 118] |
| < 50 nM | CSc1ccc2c(c1)CCN(C(C)c1ccc3scnc3c1)CC2 (single isomer, unassigned) [Example 119] |
| < 50 nM | COc1ccc2c(c1)CCN(C(C)c1ccc3nsnc3c1)CC2 (centres unmarked) [Example 1, 5-(1-(7-methoxy-1,2,4,5-tetrahydro-3H-benzo[d]azepin-3-yl)ethyl)benzo[c][1,2,5]thiadiazole] |
| < 50 nM | COc1ccc2c(c1)CCN([C@@H](C)c1ccc3scnc3c1)CC2 [Example 5, (S)-5-(1-(7-methoxy-1,2,4,5-tetrahydro-3H-benzo[d]azepin-3-yl)ethyl)benzo[d]thiazole] |
| < 50 nM | COc1ccc2c(c1)CCN(C(C)c1ccc3c(c1)OCC3)CC2 (centres unmarked) [Example 7, 3-(1-(2,3-dihydrobenzofuran-6-yl)ethyl)-7-methoxy-2,3,4,5-tetrahydro-1H-benzo[d]azepine] |
| < 50 nM | CC(c1ccc2scnc2c1)N1CCc2ccc(S(C)(=N)=O)cc2CC1 (centres unmarked) [Example 113] |

| SMILES | IC50 |
| --- | --- |
| CC(C)COc1ccc2c(c1)CCN(C(C)c1ccc3scnc3c1)CC2 (single isomer, unassigned) [Example 27, (R)-5-(1-(7-isobutoxy-1,2,4,5-tetrahydro-3H-benzo[d]azepin-3-yl)ethyl)benzo[d]thiazole or (S)-5-(1-(7-isobutoxy-1,2,4,5-tetrahydro-3H-benzo[d]azepin-3-yl)ethyl)benzo[d]thiazole] | 200 to 1000 nM |
